Source: US8741806B2, “Herbicides” (Syngenta Limited, priority 2009, dated 2014)

Assays:
Format in all cases: in vivo
[1] = test system: Echinochloa crus-galli (ECHCG); assay: Example B pre-emergence herbicidal activity, glasshouse pot test; conditions: 312 h, rate 250 g/ha, evaluated after 13 days, scale 0-100, read-out: Pre-emergence activity ECHCG (100=total damage to plant; 0=no damage to plant)
Description: (§1) Seeds of a variety of test species were sown in standard soil in pots. After cultivation for one day (pre-emergence) or after 8 days cultivation (post-emergence) under controlled conditions in a glasshouse (at 24/16° C., day/night; 14 hours light; 65% humidity), the plants were sprayed with an aqueous spray solution derived from the formulation of the technical active ingredient of formula I in acetone/water (50:50) solution containing 0.5% Tween 20 (polyoxyethelyene sorbitan monolaurate, CAS RN 9005-64-5). The test plants were then grown in a glasshouse under controlled conditions in a glasshouse (at 24/16° C., day/night; 14 hours light; 65% humidity) and watered twice daily. After 13 days for pre and post-emergence, the test was evaluated (100=total damage to plant; 0=no damage to plant). Setaria faberi (SETFA), Lolium perenne (LOLPE), Alopecurus myosuroides (ALOMY), Echinochloa crus-galli (ECHCG), and Avena fatua (AVEFA). Pre-Emergence Activity

[2] = test system: Avena fatua (AVEFA); assay: as above; conditions: 312 h, rate 250 g/ha, evaluated after 13 days, scale 0-100, read-out: Pre-emergence activity AVEFA (100=total damage to plant; 0=no damage to plant)
Description: as §1

[3] = test system: Alopecurus myosuroides (ALOMY); assay: as above; conditions: 312 h, rate 250 g/ha, evaluated after 13 days, scale 0-100, read-out: Pre-emergence activity ALOMY (100=total damage to plant; 0=no damage to plant)
Description: as §1

[4] = test system: Lolium perenne (LOLPE); assay: as above; conditions: 312 h, rate 250 g/ha, evaluated after 13 days, scale 0-100, read-out: Pre-emergence activity LOLPE (100=total damage to plant; 0=no damage to plant)
Description: as §1

[5] = test system: Echinochloa crus-galli (ECHCG); assay: Example B post-emergence herbicidal activity, glasshouse pot test; conditions: 312 h, rate 250 g/ha, evaluated after 13 days, scale 0-100, read-out: Post-emergence activity ECHCG (100=total damage to plant; 0=no damage to plant)
Description: as §1, with “Post-Emergence” for “Pre-Emergence”

[6] = test system: Avena fatua (AVEFA); assay: as above; conditions: 312 h, rate 250 g/ha, evaluated after 13 days, scale 0-100, read-out: Post-emergence activity AVEFA (100=total damage to plant; 0=no damage to plant)
Description: as §1, with “Post-Emergence” for “Pre-Emergence”

[7] = test system: Alopecurus myosuroides (ALOMY); assay: as above; conditions: 312 h, rate 250 g/ha, evaluated after 13 days, scale 0-100, read-out: Post-emergence activity ALOMY (100=total damage to plant; 0=no damage to plant)
Description: as §1, with “Post-Emergence” for “Pre-Emergence”

[8] = test system: Lolium perenne (LOLPE); assay: as above; conditions: 312 h, rate 250 g/ha, evaluated after 13 days, scale 0-100, read-out: Post-emergence activity LOLPE (100=total damage to plant; 0=no damage to plant)
Description: as §1, with “Post-Emergence” for “Pre-Emergence”

Structure (SMILES) | pest or weed control at 250 g/ha [1] [%] | pest or weed control at 250 g/ha [2] [%] | pest or weed control at 250 g/ha [3] [%] | pest or weed control at 250 g/ha [4] [%] | pest or weed control at 250 g/ha [5] [%] | pest or weed control at 250 g/ha [6] [%] | pest or weed control at 250 g/ha [7] [%] | pest or weed control at 250 g/ha [8] [%]
CCc1ccc(-c2ccc(Cl)cc2)cc1C1=C(O)C(C)(C)CC(C)(C)C1=O [Compound T69] | 90 | 0 | 10 | 90 | 100 | 40 | 20 | 100
CCc1ccc(-c2ccc(Cl)c(OC)c2)cc1C1=C(O)C(C)(C)CC(C)(C)C1=O [Compound T66] | 90 | 0 | 10 | 30 | 100 | 50 | 30 | 30
CCc1ccc(-c2ccc(Cl)cc2F)cc1C1=C(O)CCCC1=O [Compound T45] | 100 | 20 | 20 | 100 | 100 | 90 | 40 | 100
CCc1ccc(-c2ccc(Cl)c(OC)c2)cc1C1=C(O)C(C)(C)CCC1=O [Compound T6] | 80 | 0 | 0 | 0 | 100 | 40 | 0 | 60
CCc1ccc(-c2ccc(Cl)cc2F)cc1C1=C(O)C(C)(C)CC(C)(C)C1=O [Compound T60] | 90 | 30 | 0 | 80 | 100 | 30 | 10 | 80
CCc1ccc(-c2ccc(Cl)c(Cl)c2)cc1C1=C(O)C(C)(C)CCC1=O [Compound T5] | 0 | 0 | 0 | 0 | 100 | 90 | 70 | 80
CCc1ccc(-c2ccc(Cl)c(OC)c2)cc1C1=C(O)CCCC1=O [Compound T50] | 90 | 40 | 20 | 0 | 100 | 80 | 70 | 80
CCc1ccc(-c2ccc(Cl)nc2)cc1C1=C(O)C(C)(C)CCC1=O [Compound T11] | 20 | 0 | 0 | 0 | 90 | 60 | 60 | 60
CCc1ccc(-c2ccc(Cl)s2)cc1C1=C(O)CCCC1=O [Compound T55] | 40 | 0 | 20 | 20 | 100 | 10 | 40 | 60
CCc1ccc(-c2ccc(Cl)nc2Cl)cc1C1=C(O)CCCC1=O [Compound T57] | 20 | 0 | 0 | 10 | 80 | 40 | 50 | 60
CCc1ccc(-c2cc(Cl)c(Cl)cc2Cl)cc1C1=C(O)C(C)(C)CCC1=O [Compound T20] | 90 | 0 | 0 | 50 | 80 | 40 | 0 | 70
CCc1ccc(-c2ccc(Cl)c(Cl)c2)cc1C1=C(O)C(C)(C)CC(C)(C)C1=O [Compound T67] | 60 | 0 | 10 | 10 | 80 | 20 | 20 | 40
CCc1ccc(-c2ccc(Cl)c(F)c2F)cc1C1=C(O)CC(C)(C)CC1=O [Compound T30] | 70 | 20 | 0 | 70 | 100 | 60 | 80 | 100
